Experimental data published in publication PMC9791135, “A penetratin-derived peptide reduces the membrane permeabilization and cell toxicity of α-synuclein oligomers” (The Journal of Biological Chemistry, 2022).
Where a SMILES comes first, the peptide text is derived from it.

Key:
SH-SY5Y cells = assay: MTT cell viability assay, substance alone; conditions: for Cell viability (MTT): SH-SY5Y cells, 35 μg/ml peptide alone, 24 h
Description: The effect of the peptides on αSOs toxicity in SH-SY5Y cells using 3-(4, 5-dimethylthiazol-2-yl)-2,5-diphenyltetrazolium bromide (MTT) cell viability assay was also tested to complement our calcein data.
We used the MTT assay to measure cell viability after 24 h treatment with αSOs in the presence of peptides. SH-SY5Y cells were seeded in 96-well plates at a density of 5 × 10^4 cell/ml in Dulbecco's modified Eagle's medium supplemented with 10% FBS, 100 unit/ml penicillin, and […]. The cells were incubated in a humidified atmosphere incubator with 5% CO2 and 95% humidity at 37 °C for 24 h. The culture medium was then replaced with fresh medium containing 10 μM αSOs with peptides and incubated for another 24 h. Then the cell medium was replaced with a fresh medium containing 20% MTT (5 mg/ml), and the cells were incubated for an additional 4 h at 37 °C. Then 100 μl of dimethyl sulfoxide was added to dissolve formazan crystals by incubating for 30 min on a shaker at RT. Consequently, absorbance was measured by using a plate reader at 570 nm.

α-syn [1] = molecular target: T1, α-syn (Homo sapiens, UniProt P37840); assay: ThT fluorescence assay of unseeded α-syn fibrillation in the presence of peptides; type: biochemical; conditions: 1 mg/ml α-syn, 0–0.5 mg/ml peptide, 48 h; for ThT signal end level: unseeded ThT, 37 °C, versus α-syn alone
T1 construct: made in house; host or cells: Escherichia coli BL21 (DE3), plasmid pET11-D
Description: To test the effects of these selected nine peptides on the aggregation of α-syn, we performed a thioflavin T (ThT) fluorescence assay in the presence of 1 mg/ml α-syn and 0 to 0.5 mg/ml peptide for 48 h (raw data in Fig. S3). Furthermore, the peptides alone were monitored for self-fibrillation. […] High concentrations of p222, p194, and p249 led to a decline in ThT fluorescence after reaching a plateau, possibly because of the formation of insoluble amorphous species. We also carried out seeding experiments by adding 5% sonicated preaggregated α-syn fibrils to the ThT assay.
About 150 μl of 70 μM (1 mg/ml) α-syn, 40 μM ThT, and varying amounts of peptides (0, 0.06, 0.125, 0. 25, 0.375, and 0.5 mg/ml) were transferred in triplicates to a black COSTAR 96-well clear bottom plate (Nunc, Thermo Fisher Scientific), and including a 3 mm diameter glass bead (Glaswarenfabrik Karl Hecht GmbH & Co KG) per well to increase reproducibility ([100]). The plate was sealed with Crystal Clear sealing tape (Hampton Research) and incubated at 37 °C in a CLARIOstar Plus (BMG LABTECH) fluorescence plate reader. Fibrillation was carried out for ∼48 h with 300 rpm double orbital shaking between the readings for 372 s (excitation/emission: 448∕485 nm). Seeding experiments were performed using the same setting as for the fibrillation assay as described ([39]). Briefly, the experiments were done in triplicates in the presence of 0.05 mg/ml of α-syn fibril seeds (5% seeding) and 1 mg/ml of peptides in a solution of 1 mg/ml α-syn in 96-well plates.

α-syn [2] = molecular target: T1, α-syn; assay: Far-UV CD of fibrillated α-syn–peptide samples; type: biochemical; conditions: fibrillated samples after washing, signal at 218 nm; versus α-syn alone
Excerpt: To analyze the secondary structure of the final aggregates, we recorded far-UV CD and attenuated total reflectance (ATR)–FTIR spectra for fibrillated samples after washing to remove free α-syn and peptides. […] Overall, as the concentration of peptides increases, the intensity of signal at 218 nm decreases (Fig. 4A). We observed that α-syn fibrils formed in the presence of p194, p222, p235, and p249 precipitated rapidly after mixing with these peptides. This likely gives rise to light scattering, which reduces CD signals. To overcome these artifacts, we turned to ATR–FTIR spectroscopy, which is not sensitive to scattering. […] Both far-UV CD and ATR–FTIR spectroscopy confirm extensive β-sheet structure. However, in the presence of peptides, some structural changes were observed as reflected by the decrease in the amyloid cross β-sheet structure at ∼1629 cm^−1 and increases in the random and coil structures (∼1656 and ∼1676 cm^−1, respectively) (Table 2). […] Taking all together, ATR–FTIR data are in reasonable agreement with far-UV CD.
To remove free α-syn and peptides, fibrillated samples were centrifuged (13,000 rpm, 15 min). This leaves monomeric α-syn plus unbound and free peptides in the supernatant. The supernatant was discarded, and the pellet was washed two times in the same volume of PBS buffer, pH 7.4, to ensure complete removal of monomeric α-syn and free peptides. Far-UV CD spectra were recorded at 25 °C on a Chirascan CD Spectrophotometer (Applied Photophysics) using a 0.1 mm quartz cuvette in the wavelength range of 200 to 260 nm with 1 nm bandwidth and three accumulations. The buffer spectrum was subtracted, and the results were expressed as mean residue ellipticity [θ] (deg cm^2 dmol^−1).

Row | Molecule | Toxicity to SH-SY5Y cells, in words (SH-SY5Y cells) | Cell viability (MTT) (SH-SY5Y cells) [%] | Effect on α-syn aggregation (ThT), in words (α-syn [1]) | Far-UV CD (β-sheet structures) (α-syn [2]) | ThT signal end level (α-syn [1])
1 | CC[C@H](C)[C@H](NC(=O)[C@H](Cc1ccccc1)NC(=O)[C@H](Cc1c[nH]c2ccccc12)NC(=O)[C@H](CCCNC(=N)N)NC(=O)[C@H](CC(N)=O)NC(=O)[C@@H](NC(=O)[C@H](CCC(N)=O)NC(=O)[C@H](CCCCN)NC(=O)[C@@H](N)CCSC)[C@@H](C)CC)C(=O)N[C@@H](CCCNC(=N)N)C(=O)N[C@@H](Cc1c[nH]c2ccccc12)C(=O)N[C@@H](CCC(N)=O)C(=O)N[C@@H](CCCCN)C(=O)N[C@@H](CCCCN)C(=O)N[C@@H](CCCNC(=N)N)C(=O)N[C@@H](CCCCN)C(=O)O [p249] (H-MKQINRWFIRWQKKRK-OH; N-terminus and C-terminus assumed) | slight toxicity | 80 | slight aggregation-promoting effect | ↓↓↓β | 
2 | CC[C@H](C)[C@H](NC(=O)[C@H](Cc1c[nH]c2ccccc12)NC(=O)[C@H](CCCNC(=N)N)NC(=O)[C@H](Cc1c[nH]c2ccccc12)NC(=O)[C@H](CCCCN)NC(=O)[C@@H](NC(=O)[C@H](CCCCN)NC(=O)[C@H](CCC(N)=O)NC(=O)[C@@H](N)CC(N)=O)[C@@H](C)CC)C(=O)N[C@@H](CCC(N)=O)C(=O)N[C@@H](CCCNC(=N)N)C(=O)N[C@@H](Cc1ccccc1)C(=O)N[C@@H](CCCNC(=N)N)C(=O)N[C@@H](CCCCN)C(=O)N[C@@H](CCCCN)C(=O)N[C@@H](CCSC)C(=O)O [p235] (H-NQKIKWRWIQRFRKKM-OH; N-terminus and C-terminus assumed) | slight toxicity |  | slight aggregation-promoting effect | ↓↓↓β | ↑↑
3 | CC(C)C[C@H](NC(=O)[C@H](Cc1c[nH]cn1)NC(=O)[C@H](CO)NC(=O)[C@H](CO)NC(=O)[C@H](C)NC(=O)[C@@H](N)CO)C(=O)N[C@@H](Cc1c[nH]cn1)C(=O)N[C@@H](Cc1c[nH]cn1)C(=O)NCC(=O)N[C@@H](Cc1c[nH]cn1)C(=O)N[C@@H](CO)C(=O)NCC(=O)NCC(=O)O [p168] (H-SASSHLHHGHSGG-OH) |  | 94 | did not change the lag phase duration | ↓↓β | 
4 | RQIKIWFQNRRFKWKK [p222, penetratin with modulated hydrophobicity] | slight toxicity |  | slight aggregation-promoting effect | ↓↓↓β | ↑↑
